This note sets out measurements from patent US20070244140A1, “Anilino-pyrimidine phenyl and benzothiophene analogs” (Wyeth, priority 2006, published 2007).

By melting point is commonly meant the temperature, or range, at which the solid turns liquid.

Compound `O=S(=O)(c1ccc(Nc2nccc(-c3ccc(C(F)(F)F)cc3)n2)cc1)N1CCOCC1` [Exemplary Compound 39, N-[4-(Morpholin-4-ylsulfonyl)phenyl]-4-[4-(trifluoromethyl)phenyl]pyrimidin-2-amine] showed a melting point of 240 to 241 °C.

Consider `O=S(=O)(NCCCO)c1ccc(Nc2nccc(-c3ccc(C(F)(F)F)cc3)n2)cc1` [Exemplary Compound 68, N-(3-hydroxypropyl)-4-({4-[4-(trifluoromethyl)phenyl]pyrimidin-2-yl}amino)-benzenesulfonamide], for which the melting point was 204 to 205 °C.
